Experimental findings from US20250230193A1, “CYCLIC COMPOUND HAVING SELECTIVE KRAS INHIBITORY EFFECT ON HRAS AND NRAS” (CHUGAI SEIYAKU KABUSHIKI KAISHA, priority 2022, published 2025) are described below.

Test [1] addresses GDP-bound NRAS wild-type protein (Homo sapiens, UniProt P01111). Put plainly: Binding to NRAS by surface plasmon resonance (SPR), Single Cycle Kinetics. The following applies: SPR, GDP-bound NRAS wild-type vs GDP-bound KRAS wild-type.
For test [2], the target named is GDP-bound HRAS wild-type protein (Homo sapiens, UniProt P01112). Put plainly: Binding to HRAS by surface plasmon resonance (SPR), Single Cycle Kinetics. The conditions noted are these: SPR, GDP-bound HRAS wild-type vs GDP-bound KRAS wild-type.
GDP-bound HRAS wild-type protein, sequence (P01112 whole entry): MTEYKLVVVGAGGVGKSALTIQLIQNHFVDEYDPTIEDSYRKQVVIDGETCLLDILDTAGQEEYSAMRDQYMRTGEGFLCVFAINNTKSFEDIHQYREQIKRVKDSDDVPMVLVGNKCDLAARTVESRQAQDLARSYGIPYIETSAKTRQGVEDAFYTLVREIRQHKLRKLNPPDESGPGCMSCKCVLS

GDP-bound NRAS wild-type protein, sequence (P01111 whole entry): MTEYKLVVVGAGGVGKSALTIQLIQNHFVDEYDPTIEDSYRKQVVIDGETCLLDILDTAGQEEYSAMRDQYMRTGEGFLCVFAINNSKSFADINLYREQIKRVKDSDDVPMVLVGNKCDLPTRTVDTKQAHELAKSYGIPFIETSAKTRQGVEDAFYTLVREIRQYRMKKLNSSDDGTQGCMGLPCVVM

For the molecule `CCO[C@@H]1C[C@H]2C(=O)NC3(CC(C)(C)C3)C(=O)N(C)[C@@H](C(CC)CC)C(=O)N(C)[C@H](C(=O)N(C)C)CC(=O)N(C)[C@@H](CC3CC3)C(=O)N[C@@H]([C@@H](C)CC)C(=O)N(C)CC(=O)N(C)[C@H]3C/C=C\CCN(C3=O)[C@@H](CC3CCC(F)(F)CC3)C(=O)N(C)CC(=O)N[C@@H](CCc3cc(F)c(C(F)(F)F)c(F)c3)C(=O)N2C1` [PP2485], the “NRAS/KRAS (ratio of KD value with respect to NRAS to KD value with respect to KRAS)” value in test [1] was “A (a compound having 10 or more and less than 20 is denoted as A)”. Also, the “HRAS/KRAS (ratio of KD value with respect to HRAS to KD value with respect to KRAS)” value in test [2] is “A (a compound having 10 or more and less than 20 is denoted as A)”.
Consider `CCOC[C@H]1C(=O)N[C@@H]([C@@H](C)CC)C(=O)N(C)CC(=O)N(C)[C@H]2C/C=C\CCN(C2=O)[C@@H](CC2CCCCC2)C(=O)N(C)CC(=O)N[C@@H](CCc2ccc(C(F)(F)F)c(Cl)c2)C(=O)N2C[C@H](OCC)C[C@H]2C(=O)NC2(CC(C)(C)C2)C(=O)N(C)[C@@H](C(CC)CC)C(=O)N(C)[C@H](C(=O)N(C)C)CC(=O)N1C` [PP2488], for which the “NRAS/KRAS (ratio of KD value with respect to NRAS to KD value with respect to KRAS)” value in test [1] was “A (a compound having 10 or more and less than 20 is denoted as A)”. Moreover, the “HRAS/KRAS (ratio of KD value with respect to HRAS to KD value with respect to KRAS)” value in test [2] was “A (a compound having 10 or more and less than 20 is denoted as A)”.
For the molecule `CCC[C@H]1C(=O)N[C@@H]([C@@H](C)CC)C(=O)N(C)CC(=O)N(C)[C@H]2C/C=C\CCN(C2=O)[C@@H](CC2CCC(F)(F)CC2)C(=O)N(C)CC(=O)N[C@@H](CCc2cc(F)c(C(F)(F)F)c(F)c2)C(=O)N2C[C@H](OCC)C[C@H]2C(=O)NC2(CC(C)(C)C2)C(=O)N(C)[C@@H](C(CC)CC)C(=O)N(C)[C@H](C(=O)N(C)C)CC(=O)N1C` [PP2489], the “NRAS/KRAS (ratio of KD value with respect to NRAS to KD value with respect to KRAS)” value in test [1] is “A (a compound having 10 or more and less than 20 is denoted as A)”. Also, in test [2], the “HRAS/KRAS (ratio of KD value with respect to HRAS to KD value with respect to KRAS)” value is “A (a compound having 10 or more and less than 20 is denoted as A)”.
On to `CCCOC[C@H]1C(=O)N[C@@H]([C@@H](C)CC)C(=O)N(C)CC(=O)N(C)[C@H]2C/C=C\CCN(C2=O)[C@@H](CC2CCC(F)(F)CC2)C(=O)N(C)CC(=O)N[C@@H](CCc2cc(F)c(C(F)(F)F)c(F)c2)C(=O)N2C[C@@H](C)C[C@H]2C(=O)NC2(CC(C)(C)C2)C(=O)N(C)[C@@H](C(CC)CC)C(=O)N(C)[C@H](C(=O)N(C)C)CC(=O)N1C` [PP2490], for which the “NRAS/KRAS (ratio of KD value with respect to NRAS to KD value with respect to KRAS)” value in test [1] was “AA (a compound having 20 or more is denoted as AA)”. In addition, in test [2], the “HRAS/KRAS (ratio of KD value with respect to HRAS to KD value with respect to KRAS)” value is “A (a compound having 10 or more and less than 20 is denoted as A)”.
`CCO[C@@H]1C[C@H]2C(=O)NC3(CC(C)(C)C3)C(=O)N(C)[C@@H](C(CC)CC)C(=O)N(C)[C@H](C(=O)N(C)C)CC(=O)N(C)[C@@H](C(C)C)C(=O)N[C@@H]([C@@H](C)CC)C(=O)N(C)CC(=O)N(C)[C@H]3C/C=C\CCN(C3=O)[C@@H](CC3CCC(F)(F)CC3)C(=O)N(C)CC(=O)N[C@@H](CCc3ccc(C(F)(F)F)c(Cl)c3)C(=O)N2C1` [PP2492]: the “NRAS/KRAS (ratio of KD value with respect to NRAS to KD value with respect to KRAS)” value in test [1] was “AA (a compound having 20 or more is denoted as AA)”. In test [2], the “HRAS/KRAS (ratio of KD value with respect to HRAS to KD value with respect to KRAS)” value is “A (a compound having 10 or more and less than 20 is denoted as A)”.
With `CCC(CC)[C@H]1C(=O)N(C)[C@H](C(=O)N(C)C)CC(=O)N(C)[C@@H](CC2CC2)C(=O)N[C@@H]([C@@H](C)CC)C(=O)N(C)CC(=O)N(C)[C@H]2C/C=C\CCN(C2=O)[C@@H](CC2CCC(F)(F)CC2)C(=O)N(C)CC(=O)N[C@@H](CCc2ccc(C(F)(F)F)c(OC)c2)C(=O)N2C[C@@H](C)C[C@H]2C(=O)NC2(CC(C)(C)C2)C(=O)N1C` [PP2494], the “NRAS/KRAS (ratio of KD value with respect to NRAS to KD value with respect to KRAS)” value in test [1] was “A (a compound having 10 or more and less than 20 is denoted as A)”. For the same molecule, the “HRAS/KRAS (ratio of KD value with respect to HRAS to KD value with respect to KRAS)” value in test [2] was “A (a compound having 10 or more and less than 20 is denoted as A)”.
Turning to `CCO[C@@H]1C[C@H]2C(=O)NC3(CC(C)(C)C3)C(=O)N(C)[C@@H](C(CC)CC)C(=O)N(C)[C@H](C(=O)N(C)C)CC(=O)N(C)[C@@H](CC3CC3)C(=O)N[C@@H]([C@@H](C)CC)C(=O)N(C)CC(=O)N(C)[C@H]3C/C=C\CCN(C3=O)[C@@H](CC3CCC(F)(F)CC3)C(=O)N(C)CC(=O)N[C@@H](CCc3ccc(C(F)(F)F)c(Cl)c3)C(=O)N2C1` [PP2495], the “NRAS/KRAS (ratio of KD value with respect to NRAS to KD value with respect to KRAS)” value in test [1] was “A (a compound having 10 or more and less than 20 is denoted as A)”. In addition, the “HRAS/KRAS (ratio of KD value with respect to HRAS to KD value with respect to KRAS)” value in test [2] is “A (a compound having 10 or more and less than 20 is denoted as A)”.
Take `CCC(CC)[C@H]1C(=O)N(C)[C@H](C(=O)N(C)C)CC(=O)N(C)[C@@H](C(C)C)C(=O)N[C@@H]([C@@H](C)CC)C(=O)N(C)CC(=O)N(C)[C@H]2C/C=C\CCN(C2=O)[C@@H](CC2CCC(F)(F)CC2)C(=O)N(C)CC(=O)N[C@@H](CCc2cc(F)c(C(F)(F)F)c(F)c2)C(=O)N2C[C@@H](C)C[C@H]2C(=O)NC2(CC(C)(C)C2)C(=O)N1C` [PP2496]: the “NRAS/KRAS (ratio of KD value with respect to NRAS to KD value with respect to KRAS)” value in test [1] is “A (a compound having 10 or more and less than 20 is denoted as A)”. Also, in test [2], the “HRAS/KRAS (ratio of KD value with respect to HRAS to KD value with respect to KRAS)” value was “A (a compound having 10 or more and less than 20 is denoted as A)”.
Regarding `CCC[C@H]1C(=O)N[C@@H]([C@@H](C)CC)C(=O)N(C)CC(=O)N(C)[C@H]2C/C=C\CCN(C2=O)[C@@H](CC2CCC(F)(F)CC2)C(=O)N(C)CC(=O)N[C@@H](CCc2ccc(C(F)(F)F)c(OC)c2)C(=O)N2C[C@@H](C)C[C@H]2C(=O)NC2(CC(C)(C)C2)C(=O)N(C)[C@@H](C(CC)CC)C(=O)N(C)[C@H](C(=O)N(C)C)CC(=O)N1C` [PP2497], the “NRAS/KRAS (ratio of KD value with respect to NRAS to KD value with respect to KRAS)” value in test [1] is “A (a compound having 10 or more and less than 20 is denoted as A)”. Moreover, the “HRAS/KRAS (ratio of KD value with respect to HRAS to KD value with respect to KRAS)” value in test [2] was “A (a compound having 10 or more and less than 20 is denoted as A)”.
As to `CCC[C@H]1C(=O)N[C@@H]([C@@H](C)CC)C(=O)N(C)CC(=O)N(C)[C@H]2C/C=C\CCN(C2=O)[C@@H](CC2CCC(F)(F)CC2)C(=O)N(C)CC(=O)N[C@@H](CCc2ccc(C(F)(F)F)c(Cl)c2)C(=O)N2C[C@H](OCC)C[C@H]2C(=O)NC2(CC(C)(C)C2)C(=O)N(C)[C@@H](C(CC)CC)C(=O)N(C)[C@H](C(=O)N(C)C)CC(=O)N1C` [PP2498], the “NRAS/KRAS (ratio of KD value with respect to NRAS to KD value with respect to KRAS)” value in test [1] was “A (a compound having 10 or more and less than 20 is denoted as A)”. In addition, the “HRAS/KRAS (ratio of KD value with respect to HRAS to KD value with respect to KRAS)” value in test [2] is “A (a compound having 10 or more and less than 20 is denoted as A)”.
`CCC(CC)[C@H]1C(=O)N(C)[C@H](C(=O)N(C)C)CC(=O)N(C)[C@@H](CC2CC2)C(=O)N[C@@H]([C@@H](C)CC)C(=O)N(C)CC(=O)N(C)[C@H]2C/C=C\CCN(C2=O)[C@@H](CC2CCC(F)(F)CC2)C(=O)N(C)CC(=O)N[C@@H](CCc2cc(F)c(C(F)(F)F)c(F)c2)C(=O)N2C[C@@H](C)C[C@H]2C(=O)NC2(CC(C)(C)C2)C(=O)N1C` [PP2500]: in test [1], the “NRAS/KRAS (ratio of KD value with respect to NRAS to KD value with respect to KRAS)” value was “A (a compound having 10 or more and less than 20 is denoted as A)”. Further, the “HRAS/KRAS (ratio of KD value with respect to HRAS to KD value with respect to KRAS)” value in test [2] is “A (a compound having 10 or more and less than 20 is denoted as A)”.
